Data from the NIST ThermoML archive (doi:10.1021/je8002817).
± gives the expanded uncertainty stated by the source.

Conditions: Liquid

CCCC[N+](C)(C)C.O=S(=O)([N-]S(=O)(=O)C(F)(F)F)C(F)(F)F [butyltrimethylammonium bis(trifluoromethylsulfonyl)imide]
mass density (293.48 K, 101.33 kPa): 1396.3 ± 1.6 kg/m3
mass density (293.48 K, 1000 kPa): 1396.8 ± 1.2 kg/m3
mass density (293.49 K, 5000 kPa): 1398.8 ± 1.3 kg/m3
mass density (293.5 K, 40000 kPa): 1416.7 ± 2.7 kg/m3
mass density (293.51 K, 10000 kPa): 1401.4 ± 1.5 kg/m3
mass density (293.51 K, 20000 kPa): 1406.6 ± 1.9 kg/m3
mass density (293.51 K, 30000 kPa): 1411.7 ± 2.3 kg/m3
mass density (302.84 K, 101.33 kPa): 1387.9 ± 1.5 kg/m3
mass density (312.82 K, 101.33 kPa): 1379 ± 1.5 kg/m3
mass density (322.29 K, 5000 kPa): 1373.5 ± 1.3 kg/m3
mass density (322.31 K, 20000 kPa): 1382.2 ± 1.8 kg/m3
mass density (322.32 K, 10000 kPa): 1376.4 ± 1.5 kg/m3
mass density (322.32 K, 40000 kPa): 1393.2 ± 2.6 kg/m3
mass density (322.33 K, 101.33 kPa): 1370.5 ± 1.5 kg/m3
mass density (322.33 K, 30000 kPa): 1387.7 ± 2.2 kg/m3
mass density (322.34 K, 1000 kPa): 1371.1 ± 1.2 kg/m3
mass density (332.75 K, 101.33 kPa): 1361.3 ± 1.5 kg/m3
mass density (342.67 K, 101.33 kPa): 1352.5 ± 1.5 kg/m3
mass density (352.27 K, 20000 kPa): 1356.9 ± 1.8 kg/m3
mass density (352.29 K, 10000 kPa): 1350.5 ± 1.4 kg/m3
mass density (352.3 K, 5000 kPa): 1347.3 ± 1.3 kg/m3
mass density (352.32 K, 40000 kPa): 1369.1 ± 2.5 kg/m3
mass density (352.34 K, 30000 kPa): 1363 ± 2.1 kg/m3
mass density (352.36 K, 101.33 kPa): 1343.9 ± 1.4 kg/m3
mass density (352.36 K, 1000 kPa): 1344.6 ± 1.2 kg/m3
mass density (373.28 K, 5000 kPa): 1328.9 ± 1.2 kg/m3
mass density (373.3 K, 10000 kPa): 1332.4 ± 1.4 kg/m3
mass density (373.3 K, 20000 kPa): 1339.2 ± 1.7 kg/m3
mass density (373.31 K, 101.33 kPa): 1325.5 ± 1.4 kg/m3
mass density (373.31 K, 30000 kPa): 1345.8 ± 2 kg/m3
mass density (373.33 K, 1000 kPa): 1326.2 ± 1.1 kg/m3
mass density (373.35 K, 40000 kPa): 1352.3 ± 2.4 kg/m3
mass density (391.25 K, 30000 kPa): 1331.2 ± 2 kg/m3
mass density (391.26 K, 10000 kPa): 1316.9 ± 1.4 kg/m3
mass density (391.27 K, 1000 kPa): 1310.5 ± 1.1 kg/m3
mass density (391.28 K, 101.33 kPa): 1309.7 ± 1.4 kg/m3
mass density (391.28 K, 20000 kPa): 1324.2 ± 1.7 kg/m3
mass density (391.31 K, 5000 kPa): 1313.1 ± 1.2 kg/m3
mass density (391.31 K, 40000 kPa): 1338.1 ± 2.3 kg/m3
mass density (414.89 K, 30000 kPa): 1312.1 ± 1.9 kg/m3
mass density (414.92 K, 40000 kPa): 1319.5 ± 2.2 kg/m3
mass density (414.93 K, 101.33 kPa): 1288.6 ± 1.3 kg/m3
mass density (414.94 K, 5000 kPa): 1292.5 ± 1.2 kg/m3
mass density (414.94 K, 10000 kPa): 1296.6 ± 1.3 kg/m3
mass density (414.94 K, 20000 kPa): 1304.5 ± 1.6 kg/m3
mass density (414.95 K, 1000 kPa): 1289.4 ± 1.1 kg/m3

CCCC[N+]1(C)CCCC1.O=S(=O)([N-]S(=O)(=O)C(F)(F)F)C(F)(F)F
mass density (293.49 K, 101.33 kPa): 1398 ± 1.6 kg/m3
mass density (293.5 K, 10000 kPa): 1404 ± 1.5 kg/m3
mass density (293.5 K, 20000 kPa): 1409.8 ± 1.9 kg/m3
mass density (293.5 K, 30000 kPa): 1415.5 ± 2.3 kg/m3
mass density (293.5 K, 40000 kPa): 1421 ± 2.8 kg/m3
mass density (293.51 K, 1000 kPa): 1398.6 ± 1.2 kg/m3
mass density (293.51 K, 5000 kPa): 1401 ± 1.4 kg/m3
mass density (302.66 K, 101.33 kPa): 1390.1 ± 1.5 kg/m3
mass density (312.62 K, 101.33 kPa): 1381.5 ± 1.5 kg/m3
mass density (322.31 K, 10000 kPa): 1379.7 ± 1.5 kg/m3
mass density (322.31 K, 20000 kPa): 1386 ± 1.9 kg/m3
mass density (322.31 K, 40000 kPa): 1398.2 ± 2.6 kg/m3
mass density (322.32 K, 5000 kPa): 1376.4 ± 1.3 kg/m3
mass density (322.32 K, 30000 kPa): 1392.2 ± 2.2 kg/m3
mass density (322.33 K, 1000 kPa): 1373.8 ± 1.2 kg/m3
mass density (322.35 K, 101.33 kPa): 1373.2 ± 1.5 kg/m3
mass density (332.63 K, 101.33 kPa): 1364.3 ± 1.5 kg/m3
mass density (342.54 K, 101.33 kPa): 1355.9 ± 1.5 kg/m3
mass density (352.31 K, 20000 kPa): 1361.5 ± 1.8 kg/m3
mass density (352.31 K, 40000 kPa): 1374.5 ± 2.5 kg/m3
mass density (352.32 K, 101.33 kPa): 1347.5 ± 1.4 kg/m3
mass density (352.32 K, 10000 kPa): 1354.5 ± 1.4 kg/m3
mass density (352.33 K, 5000 kPa): 1351 ± 1.3 kg/m3
mass density (352.33 K, 30000 kPa): 1368.1 ± 2.1 kg/m3
mass density (352.35 K, 1000 kPa): 1348.1 ± 1.2 kg/m3
mass density (373.31 K, 5000 kPa): 1333.2 ± 1.3 kg/m3
mass density (373.31 K, 30000 kPa): 1351.3 ± 2.1 kg/m3
mass density (373.32 K, 1000 kPa): 1330.1 ± 1.2 kg/m3
mass density (373.33 K, 101.33 kPa): 1329.5 ± 1.4 kg/m3
mass density (373.33 K, 10000 kPa): 1337 ± 1.4 kg/m3
mass density (373.34 K, 20000 kPa): 1344.2 ± 1.7 kg/m3
mass density (373.34 K, 40000 kPa): 1358 ± 2.4 kg/m3
mass density (391.26 K, 1000 kPa): 1314.9 ± 1.2 kg/m3
mass density (391.29 K, 10000 kPa): 1322 ± 1.4 kg/m3
mass density (391.29 K, 30000 kPa): 1337 ± 2 kg/m3
mass density (391.3 K, 101.33 kPa): 1314.1 ± 1.4 kg/m3
mass density (391.3 K, 5000 kPa): 1318.1 ± 1.3 kg/m3
mass density (391.32 K, 20000 kPa): 1329.6 ± 1.7 kg/m3
mass density (391.32 K, 40000 kPa): 1344 ± 2.4 kg/m3
mass density (414.93 K, 101.33 kPa): 1293.9 ± 1.3 kg/m3
mass density (414.93 K, 5000 kPa): 1298.1 ± 1.2 kg/m3
mass density (414.93 K, 10000 kPa): 1302.4 ± 1.4 kg/m3
mass density (414.93 K, 20000 kPa): 1310.5 ± 1.6 kg/m3
mass density (414.93 K, 30000 kPa): 1318.1 ± 1.9 kg/m3
mass density (414.93 K, 40000 kPa): 1325.6 ± 2.3 kg/m3
mass density (414.94 K, 1000 kPa): 1294.7 ± 1.2 kg/m3
